Measured values as given in patent US20240261267A1, “METHODS FOR TREATING MULTIPLE SCLEROSIS” (Vanda Pharmaceuticals Inc., priority 2021, published 2024).

Legend:
primary mouse OPCs = assay: differentiation assay, quantitative PCR; format: cell-based
Method: The effects of ponesimod, a selective S1P1 receptor agonist, and A971432, a selective S1P5 receptor agonist, on oligodendrocyte precursor cell (OPC) migration and differentiation were evaluated. Nine concentrations were tested (logarithmic dilutions ranging from 0.3 nM to 3000 nM, n=6 per concentration). Fingolimod phosphate (P-FTY720, 3000 nM, n=6) was included as a positive control, 0.1% DMSO was included (min.one/plate) as a negative control. Primary mouse OPCs were harvested on postnatal day 0 or 1 and mixed glia cultures were maintained for 14 days. Primary OPCs were then purified using the shake-off method, and used for either a migration assay, or a differentiation assay, as detailed below. To harvest primary mouse OPCs, cortices are isolated from mouse pups on postnatal day 0 or 1 and placed in ice-cold Dulbecco's Modified Eagle Medium (DMEM) (Sigma Aldrich, Overijse, BE). The cortices are homogenized and centrifuged for 5 minutes at 300 G. The supernatant is removed, and a papain solution is added for 30 minutes (125 uL DMEM solution per brain containing 20 units/ml papain and 40 μg/ml DNase, at 37 degrees). Digestion is inactivated by adding 9 ml cold DMEM. The solution is then centrifuged for 5 minutes at […]. The supernatant is carefully removed, and the pellet is resuspended in 2-5 ml culture medium (DMEM with 10% fetal calf serum (Biowest, Nuaillé, FR) and 1% pen/strep (Sigma Aldrich, Overijse, BE)). […] Cell suspension is divided over PLL (Sigma Aldrich, Overijse, BE)-coated flasks (2 brains per flask) and DMEM is added to a final volume of 10 ml. DMEM is replaced on day 4, 7, and 11. On day 7 and 11, insulin (Sigma Aldrich, Overijse, BE) is added to the medium (5μg/ml). On day 14, OPCs are separated from astrocytes by the shake-off method: flasks are placed on a shaker for 45 minutes at 75 rpm (37 degrees). The medium is then aspirated and discarded, and 10 ml fresh culture medium is added. Flasks are then returned to the shaker for 16-18 hours shaking at 280 rpm. Next, the medium is isolated, and this cell suspension is placed in a plastic petri dish and incubated for 25 minutes. The medium, which contains the OPCs, is then collected and centrifuged for 5 minutes at 300 G. Cells are then resuspended in SATO differentiation medium containing 2% horse serum, 2% B-27, 50 U/ml P/S, 2.4 μl/ml transferrin, 1.04 μl/ml L-thyroxine, 1 μl/ml putrescin, 1 μl/ml progesterone, 1 μl/ml TIT, 0.74 μl/ml sodium selenite and 0.5 μl/ml insulin (all from Sigma-Aldrich, Overijse, BE). […] After shake-off, cells are reset for their differentiation status: one hour after plating, cells are treated with platelet-derived growth factor (PDGF, 10 ng/ml, Peprotech EC Ltd, London, UK) and fibroblast growth factor (fgf, 10 ng/ml, Peprotech EC Ltd, London, UK). Twenty-four hours after plating, cells are treated again with fgf (10 ng/ml). 250,000 cells are plated onto glass coverslips in 24-well plates. Cells are treated with test compound or DMSO on day 1 (twenty-four hours after fgf treatment) and 3, and lysated on day 4. Total RNA was isolated from primary OPCs, using the RNeasy mini kit (Qiagen, Venlo, the Netherlands), according to the manufacturer's instructions. RNA concentration and quality is analyzed with a Nanodrop spectrophotometer (Isogen Life Science, Leiden, The Netherlands). RNA is reverse-transcribed using the qScript cDNA Supermix kit (Quanta, Leuven, Belgium). qPCR is performed to analyze gene expression, using the Applied Biosystems QuantStudio 3 Real-Time PCR System (Life Technologies, Gent, Belgium). The reaction mixture consists of SYBR Green master mix (Life Technologies, Carlsbad, USA), 10 μM forward and reverse primers (Integrated DNA Technologies, Leuven, Belgium), nuclease-free water and cDNA template (12.5 ng), up to a total reaction volume of 10 μl. […] All data was normalised against plate-matched negative controls.

[1] = test system: adult subjects with relapsing MS; assay: Phase III OPTIMUM study, safety and treatment discontinuation
Method: A prospective, multicenter, randomized, double-blind, active controlled, parallel-group, phase III, superiority study (Phase III OPTIMUM study) was conducted.
Subjects had active disease evidenced by one or more MS attacks with onset within the period of 12 to 1 months prior to baseline EDSS assessment, or by two or more MS attacks with onset within the 24 to 1 months prior to baseline EDSS assessment, or with one or more gadolinium-enhancing (Gd+) lesion(s) of the brain on an MRI performed within 6 months prior to baseline EDSS assessment. Enrolled subjects were ambulatory with an EDSS score of up to 5.5 inclusive. The subjects were treatment-naïve (i.e., no MS disease-modifying therapy received at any time in the past) or previously treated with interferon (IFN) β-1a, IFN β-1b, glatiramer acetate, dimethyl fumarate, or natalizumab.
The treatment period consisted of an up-titration period (from Day 1 to 14) and a maintenance period (Day 15 until EOT).
To reduce the first-dose effect of ponesimod, an up-titration scheme was implemented from Day 1 to Day 14: • Days 1 and 2; 2 mg. • Days 3 and 4; 3 mg. • Days 5 and 6; 4 mg. • Day 7; 5 mg. • Day 8; 6 mg. • Day 9; 7 mg. • Day 10; 8 mg. • Day 11; 9 mg. • Days 12, 13, and 14; 10 mg. • Day 15 until EOT; 20 mg.
The Safety Set (SAF) included all randomized subjects who received at least one dose of study treatment. Subjects were analyzed based on actual treatment taken, not randomized treatment.

[2] = test system: normal appearing white matter (NAWM) of MS patients; assay: Phase III OPTIMUM study, myelination estimated from standardized T1/T2 MRI; format: in vivo, human
Text: The impact of treatment on myelination changes in normal appearing white matter (NAWM) which sustains damage early in the MS disease course was compared
Myelination was estimated from T1 and T2-weighted magnetic resonance images collected at baseline, week 60 and week 108 in 427 patients treated with ponesimod and 428 with teriflunomide. Standardized T1/T2 was used to quantify myelination in non-lesional corpus callosum, cingulum, and remaining NAWM. Average myelination change (ΔM) from baseline at weeks 60 (w60) and 108 (w108) were compared across treatment arms using two-sided two sample t-tests, all p-values nominal.

MS patients = assay: Phase III OPTIMUM study, efficacy outcomes; format: in vivo, human; conditions: ponesimod 20 mg compared with teriflunomide 14 mg
[3] = Safety Set, ponesimod 20 mg, teriflunomide 14 mg
[4] = ponesimod 20 mg, teriflunomide 14 mg

Q: What does the source list for O=C(O)C1CN(Cc2ccc(OCc3ccc(Cl)c(Cl)c3)cc2)C1 [A97]?
A: MOG expression (primary mouse OPCs; 3 nM): significant decrease; Mag gene expression (primary mouse OPCs; 3 nM): significant decrease; Mbp expression (primary mouse OPCs; 3 nM): decrease; Mag gene expression (primary mouse OPCs; 10 nM): significant decrease; Mbp expression (primary mouse OPCs; 10 nM): decrease; Ng2 gene expression (primary mouse OPCs; 10 nM): significant decrease; PLP expression (primary mouse OPCs; 10 nM): significant decrease; Mag gene expression (primary mouse OPCs; 30 nM): significant decrease; Mobp expression (primary mouse OPCs; 30 nM): significant decrease; Ng2 gene expression (primary mouse OPCs; 30 nM): significant decrease; Mobp expression (primary mouse OPCs; 100 nM): significant decrease; MOG expression (primary mouse OPCs; 300 nM): significant decrease; PLP expression (primary mouse OPCs; 300 nM): significant decrease; Mag gene expression (primary mouse OPCs; 1000 nM): significant decrease; Mbp expression (primary mouse OPCs; 1000 nM): decrease; Mobp expression (primary mouse OPCs; 1000 nM): significant decrease; Ng2 gene expression (primary mouse OPCs; 1000 nM): significant decrease; PLP expression (primary mouse OPCs; 1000 nM): significant decrease; expression of Ng2, Plp, Mbp, Mobp, Mog, and Mag (primary mouse OPCs; concentration series): significant concentration-dependent decreases

Q: With CCC/N=C1\S/C(=C\c2ccc(OC[C@H](O)CO)c(Cl)c2)C(=O)N1c1ccccc1C [ponesimod, (R)-5-[3-chloro-4-(2,3-dihydroxy-propoxy)-benz[Z]ylidene]-2-([Z]-propylimino)-3-o-tolyl-thiazolidin-4-one] as the molecule, how does the “2nd or higher degree AV block” value ([1]; Day 1, first dose) read?
A: Its value is “No 2nd or higher degree AV block”.

Q: What about the “ECG HR effect: nadir” value ([1]; Day 1, first dose) of the same molecule?
A: The value was 2 hours post-dose.

Q: What about the “subjects meeting discharge criteria at 4 hours post-dose” value ([1]; Day 1, first dose) of the same molecule?
A: The value was “ca. 99%”.

Q: And the “subjects with asymptomatic post-dose HR≤40 bpm” value ([1]; Day 1, all with pre-treatment HR<55 bpm)?
A: The value was 3.

Q: What about the “AEs leading to premature discontinuation of study drug, SOC Reproductive system and breast disorders” value [1, 3] of the same molecule?
A: Its value is 0 n.

Q: What about the “AEs leading to premature discontinuation of study drug, SOC Surgical and medical procedures” value [1, 3] of the same molecule?
A: The value was 0 n.

Q: And the “Premature treatment discontinuation: Death” value [1, 3]?
A: Its value is 0 n.

Q: And the “Subject with at least one AE leading to study drug discontinuation” value [1, 3]?
A: Its value is 8.7%.

Q: And the “Subject with at least one Fatal AE” value [1, 3]?
A: The value was 0 n.

Q: What about the “Subject with at least one Serious AE” value [1, 3] of the same molecule?
A: Its value is 8.7%.

Q: And the “Subject with at least one treatment-emergent AE” value [1, 3]?
A: The value was 88.8%.

Q: And the “Treatment-emergent AESI: Hepatobiliary disorders/Liver enzyme abnormality” value [1, 3]?
A: The value was 25.7%.

Q: What about the “Treatment-emergent AESI: Hypertension” value [1, 3] of the same molecule?
A: The value was 10.1%.

Q: What about the “Treatment-emergent AESI: Pulmonary events” value [1, 3] of the same molecule?
A: The value was 8.0%.

Q: And the “mean heart rate reduction compared to pre-dose” value ([1]; at 2-hours post dose, Day 1)?
A: The value was −8.7 bpm.

Q: And the “AESI heart rate and rhythm: Electrocardiogram QT prolonged” value ([1]; on Day 1, Safety Set)?
A: Its value is 0 n.

Q: What about the “AESI heart rate and rhythm: Presyncope” value ([1]; on Day 1, Safety Set) of the same molecule?
A: Its value is 0 n.

Q: What about the “AESI effect on heart rate and rhythm (including hypotension): Subjects with at least one AE” value ([1]; on Day 1, Safety Set, ponesimod arm (2 mg on Day 1), teriflunomide 14 mg) of the same molecule?
A: Its value is 2.1%.

Q: And the “TEAE ALT increased” value [1, 4]?
A: The value was 19.5%.

Q: What about the TEAE headache [1, 4] of the same molecule?
A: Its TEAE headache is 11.5%.

Q: And the TEAE nasopharyngitis [1, 4]?
A: The TEAE nasopharyngitis was 19.3%.

Q: And the “TEAE upper respiratory tract infection” value [1, 4]?
A: Its value is 10.6%.

Q: And the “proportion of subjects who experienced ALT increase>3×ULN” value [1, 4]?
A: Its value is 17.3%.

Q: What about the “proportion of subjects who experienced ALT increase>8×ULN” value [1, 4] of the same molecule?
A: Its value is 0.7%.

Q: And the “subjects discontinued due to AEs or tolerability related reasons” value [1, 4]?
A: Its value is 6.5%.

Q: What about the “average myelination decrease, comparison across treatment arms” value ([2]; all regions and both visits (w60, w108), ponesimod 20 mg vs teriflunomide 14 mg) of the same molecule?
A: The value was “significantly less demyelination”.

Q: What about the “myelination change from baseline (standardized T1/T2)” value ([2]; non-lesional corpus callosum, cingulum, remaining NAWM, weeks 60 and 108, p<0.05) of the same molecule?
A: Its value is “only the corpus callosum showed a significant decrease at w108”.

Q: What about the “Fatigue Symptoms and Impacts Questionnaire-Relapsing Multiple Sclerosis” value (MS patients) of the same molecule?
A: Its value is “difference”.

Q: What about the active lesions/year (MS patients) of the same molecule?
A: Its active lesions/year is “reduction”.

Q: And the annualized relapse rate (MS patients)?
A: Its annualized relapse rate is “greater reduction”.

Q: What about the brain volume loss (MS patients) of the same molecule?
A: The brain volume loss was “lower”.

Q: What about the “disability accumulation risk estimates” value (MS patients) of the same molecule?
A: The value was “reduction”.

Q: And the “changes at the gene expression level” value (primary mouse OPCs; all concentrations tested, normalised to negative controls)?
A: Its value is “No significant changes”.
